The text below walks through data of US20250352517A1, “THERAPEUTIC OR PROPHYLACTIC AGENT FOR COVID19 WHICH COMPRISES SELENONEINE” (National University Corporation Chiba University, priority 2021, published 2025).

Holding throughout (format): biochemical
Test [1] concerns the target T1, papain (Carica papaya, UniProt P00784).
T1 construct: purchased Sigma-Aldrich Japan
In words: Inhibitory activity against papain activity (Bz-Arg-MCA fluorescent substrate). Particulars: 10 μg/ml papain, 15 min preincubation, 37° C., pH 7.4, 10 μM Bz-Arg-MCA; from FIG. 5. The protocol: Thereafter, 10 μM Bz-Arg-MCA was added to the reaction solution, and changes in the fluorescence intensity caused by cleavage of Bz-Arg-MCA were observed over time using a fluorometer.
Thereafter, 10 μM Bz-Arg-MCA was added to the reaction solution, and changes in the fluorescence intensity caused by cleavage of Bz-Arg-MCA were measured using a fluorometer, to investigate the inhibitory activity.

Test [2] concerns the target T2, M^pro of SARS-COV2 (Severe acute respiratory syndrome coronavirus 2, UniProt P0DTD1). In words: Inhibitory activity against M^pro of SARS-COV2 at 1 μM test compound, Example 5. To be noted: 2 μg/ml M^pro, measured 1 minute after addition, FIG. 10. The method, then: The M^pro was introduced into a plasmid having GST and a histidine tag (FIG. 6), and the resulting plasmid was used for transformation of the E. coli BL21 (DE3) strain. The E. coli BL21 (DE3) strain was cultured at 37° C. to allow expression of M^pro protein. The cell bodies were recovered, and M^pro protein was purified using a binding agent for the histidine tag. The GST and the histidine tag were removed by autodigestion of M^pro and human rhinovirus 3C protease (HRV), and undigested M^pro and HRV were removed using a binding agent for the histidine tag, to obtain a purified sample of M^pro protein. […]
After dissolving 2 μg/ml M^pro and 1 μM test compound in 50 mM Tris-HCl (pH 7.4) kept at 37° C., preincubation was carried out for 5 minutes. Thereafter, 10 μM Ac-Abu-Tle-Leu-Gln-MCA was added to the reaction solution, and the fluorescence intensity resulting from cleavage of Ac-Abu-Tle-Leu-Gln-MCA was measured using a fluorometer, to measure the inhibitory activity (FIG. 10). […] When the fluorescence intensity observed in the case without addition of a test compound was taken as 100, the fluorescence intensity measured 1 minute after the addition of the test compound was about 20% in the case of selenoneine.

Test [3] deals with T2, M^pro of SARS-COV2. Briefly: Inhibitory activity against M^pro of SARS-COV2 (Ac-Abu-Tle-Leu-Gln-MCA fluorescent substrate), Example 4. To be noted: 2 μg/ml M^pro, 5 min preincubation.
Description: Thereafter, 10 μM Ac-Abu-Tle-Leu-Gln-MCA was added to the reaction solution, and changes in the fluorescence intensity caused by cleavage of Ac-Abu-Tle-Leu-Gln-MCA were measured using a fluorometer, to investigate the inhibitory activity (FIG. 8). In order to provide a control, changes in the fluorescence intensity were measured under the same conditions except that no inhibitory compound was added.
Ac-Abu-Tle-Leu-Gln-MCA is degraded by M^pro, to produce a fluorescent substance as follows. The production of the fluorescent substance is suppressed by the action of an M^pro-inhibiting compound.
Thereafter, 10 μM Ac-Abu-Tle-Leu-Gln-MCA was added to the reaction solution, and changes in the fluorescence intensity caused by cleavage of Ac-Abu-Tle-Leu-Gln-MCA were measured using a fluorometer to measure the fluorescence intensity, to determine an inhibition curve (FIG. 8).

T1 sequence (P00784 134-345): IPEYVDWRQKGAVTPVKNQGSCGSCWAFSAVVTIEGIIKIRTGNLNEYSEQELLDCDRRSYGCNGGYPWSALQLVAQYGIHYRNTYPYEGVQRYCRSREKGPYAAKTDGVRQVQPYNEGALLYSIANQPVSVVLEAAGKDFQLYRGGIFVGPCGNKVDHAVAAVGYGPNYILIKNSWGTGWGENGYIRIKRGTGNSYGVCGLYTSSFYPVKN

Regarding `O=c1c2ccccc2[se]n1-c1ccccc1` [Ebselen, ebselen, reference compound], the half-maximal inhibitory concentration (IC50) (in general, the midpoint of a concentration-inhibition curve) in test [1] was found to be 5 µM.
Consider `C[N+](C)(C)C(Cc1cnc([SeH])[nH]1)C(=O)O` [Selenoneine, 2-selenyl-Nα,Nα,Nα-trimethyl-L-histidine], for which, in test [2], the “fluorescence intensity (case without test compound taken as 100)” value is given as “about 20%”. In addition, the half-maximal inhibitory concentration (IC50) was 0.54 µM in test [3] (37° C., pH 7.4, 10 μM Ac-Abu-Tle-Leu-Gln-MCA, read-out: IC50 value calculated from the regression curve) and 0.25 µM in test [1]. Also, the “changes in the fluorescence intensity compared with control without inhibitory compound” value in test [3] (5 μM compound, FIG. 8) was “lower than that in the case where no inhibitory compound was added”.
